Data: PMC6979384, “Characterization of the plant homeodomain (PHD) reader family for their histone tail interactions” (Epigenetics & Chromatin, 2020)

Legend:
Assay in all cases: Histone peptide microarray
Type in all cases: binding, human
Conditions in all cases: sheet "Array Heatmap"; GST-tagged reader; histone peptide array, total n = 4
[1] = tested on: AIRE (PP)
In short: (§1)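 Recombinant GST-PHD protein at 0.5 μM; 293-member modified histone peptide array; signals averaged from four repeats ± SD.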

[2] = tested on: BAZ2B
In short: as §1

[3] = tested on: BPTF (PB)
In short: as §1

[4] = tested on: CHD4 (PPCC)
In short: as §1

[5] = tested on: CHD5 (PCC)
In short: as §1

[6] = tested on: CHD5 (PPCC)
In short: as §1

[7] = tested on: DIDO1
In short: as §1

[8] = tested on: DPF2 (PPC2W2)
In short: as §1

[9] = tested on: ING1
In short: as §1

[10] = tested on: ING2
In short: as §1

[11] = tested on: ING3
In short: as §1

[12] = tested on: ING4
In short: as §1

[13] = tested on: ING5
In short: as §1

[14] = tested on: KDM4C (TTP)
In short: as §1

[15] = tested on: KDM5A (1)
In short: as §1

[16] = tested on: KDM5A (3)
In short: as §1

[17] = tested on: KDM5B (1)
In short: as §1

[18] = tested on: KDM5B (3)
In short: as §1

[19] = tested on: KDM7A
In short: as §1

[20] = tested on: MLL5
In short: as §1

[21] = tested on: MORC3 (CW)
In short: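 A peptide microarray holding 293 synthetic histone peptides with individual or combinatorial modifications was probed with each GST-PHD protein at 0.5 μM. Values represent mean intensity (±SD) from four replicates.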

[22] = tested on: PHF13
In short: as §1

[23] = tested on: PHF21A
In short: as §1

[24] = tested on: PHF23
In short: as §1

[25] = tested on: PHF2
In short: as §1

[26] = tested on: PHF8
In short: as §1

[27] = tested on: PHRF1 (RP)
In short: as §1

[28] = tested on: RAG2
In short: as §1

[29] = tested on: SP140L
In short: as §1

[30] = tested on: TAF3
In short: as §1

[31] = tested on: TRIM66 (PB)
In short: as §1

| Substance | Array Heatmap signal, AIRE (PP) [1] | Array Heatmap signal, BAZ2B [2] | Array Heatmap signal, BPTF (PB) [3] | Array Heatmap signal, CHD4 (PPCC) [4] | Array Heatmap signal, CHD5 (PCC) [5] | Array Heatmap signal, CHD5 (PPCC) [6] | Array Heatmap signal, DIDO1 [7] | Array Heatmap signal, DPF2 (PPC2W2) [8] | Array Heatmap signal, ING1 [9] | Array Heatmap signal, ING2 [10] | Array Heatmap signal, ING3 [11] | Array Heatmap signal, ING4 [12] | Array Heatmap signal, ING5 [13] | Array Heatmap signal, KDM4C (TTP) [14] | Array Heatmap signal, KDM5A (1) [15] | Array Heatmap signal, KDM5A (3) [16] | Array Heatmap signal, KDM5B (1) [17] | Array Heatmap signal, KDM5B (3) [18] | Array Heatmap signal, KDM7A [19] | Array Heatmap signal, MLL5 [20] | further results |
| --- | --- | --- | --- | --- | --- | --- | --- | --- | --- | --- | --- | --- | --- | --- | --- | --- | --- | --- | --- | --- | --- |
| H3R8me1: H3 1-20 [Peptide H3R8me1] | 0.5084 | 0.4447 | 0.34 | 0.56 | 0.7411 | 0.5449 | 0.6306 | 0.6736 | 0.4918 | 0.6007 | 0.4554 | 0.4481 | 0.3558 | 0.4945 | 0.4661 | 0.5111 | 0.6779 | 0.4843 | 0.3359 | 0.5181 | Array Heatmap signal, MORC3 (CW) [21]: 0.4492; Array Heatmap signal, PHF13 [22]: 0.597; Array Heatmap signal, PHF21A [23]: 0.4425; Array Heatmap signal, PHF23 [24]: 0.5397; Array Heatmap signal, PHF2 [25]: 0.4833; Array Heatmap signal, PHF8 [26]: 0.3354; Array Heatmap signal, PHRF1 (RP) [27]: 0.6379; Array Heatmap signal, RAG2 [28]: 0.2447; Array Heatmap signal, SP140L [29]: 0.3587; Array Heatmap signal, TAF3 [30]: 0.2594; Array Heatmap signal, TRIM66 (PB) [31]: 0.5513 |
| H3R8me2a + K9me3: H3 1-20 | 0.4401 | 0.4376 | 0.3424 | 0.5686 | 0.7117 | 0.5418 | 0.7155 | 0.714 | 0.57 | 0.595 | 0.4657 | 0.4504 | 0.3474 | 0.4618 | 0.4583 | 0.5315 | 0.64 | 0.5093 | 0.3302 | 0.5407 | Array Heatmap signal, MORC3 (CW) [21]: 0.4005; Array Heatmap signal, PHF13 [22]: 0.5734; Array Heatmap signal, PHF21A [23]: 0.4463; Array Heatmap signal, PHF23 [24]: 0.5164; Array Heatmap signal, PHF2 [25]: 0.5753; Array Heatmap signal, PHF8 [26]: 0.3554; Array Heatmap signal, PHRF1 (RP) [27]: 0.6376; Array Heatmap signal, RAG2 [28]: 0.2449; Array Heatmap signal, SP140L [29]: 0.3611; Array Heatmap signal, TAF3 [30]: 0.2595; Array Heatmap signal, TRIM66 (PB) [31]: 0.5712 |
| H3R8me2a: H3 1-20 [Peptide H3R8me2a] | 0.5572 | 0.437 | 0.3288 | 0.5373 | 0.7162 | 0.5334 | 0.6465 | 0.6583 | 0.4976 | 0.6044 | 0.4474 | 0.4314 | 0.3481 | 0.4962 | 0.4494 | 0.6079 | 0.6786 | 0.4831 | 0.3419 | 0.5074 | Array Heatmap signal, MORC3 (CW) [21]: 0.4558; Array Heatmap signal, PHF13 [22]: 0.5768; Array Heatmap signal, PHF21A [23]: 0.4488; Array Heatmap signal, PHF23 [24]: 0.5221; Array Heatmap signal, PHF2 [25]: 0.4368; Array Heatmap signal, PHF8 [26]: 0.3345; Array Heatmap signal, PHRF1 (RP) [27]: 0.6824; Array Heatmap signal, RAG2 [28]: 0.2386; Array Heatmap signal, SP140L [29]: 0.3504; Array Heatmap signal, TAF3 [30]: 0.2542; Array Heatmap signal, TRIM66 (PB) [31]: 0.5681 |
